Measurements published in PubChem BioAssay AID1249 (Columbia University Molecular Screening Center, 2008).
Activity calls are given as the source filed them. The rule behind the calls is not given here.

Assay: modifiers of cytoskeleton assembly, confirmation, imaging, high-content imaging, retest and dose response (AID 1249);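 note: compound exposure lasted 24 h before fixation; plate controls were untreated cells for no effect and reference compound treated cells for full effect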
Conditions: cell-based imaging, cytoskeleton assembly phenotype, high content; at 2 µM; stronger effect = higher value
For COC(=O)CCC(=O)Nc1cccc(Br)c1, the inhibition was 4.9% (inactive). For Cc1nn(S(=O)(=O)c2ccccc2)c(C)c1Sc1ccc([N+](=O)[O-])cc1, the inhibition was 2.5% (inactive). In the case of CCn1c(=O)cc(OCC(=O)NCc2ccco2)c2ccccc21, the inhibition is reported as -5% (inactive). For Cc1ccccc1OCC(=O)Nc1ccc2c(c1)COC2=O, the inhibition was -15.6% (inactive). In the case of CC1CC(=O)NN=C1c1ccc(NCCO)c([N+](=O)[O-])c1 (configuration not stated), the inhibition is reported as -4.6% (inactive). For CCc1ccc2oc(-c3cc(N)ccc3O)nc2c1, the inhibition was -11.6% (inactive). For Cc1oc2cc3c(C(=O)N4CCCCC4)c(C)oc3cc2c1C(=O)N1CCCCC1, the inhibition was -4.7% (inactive). In the case of Cc1ccc(-n2c([O-])nc(-[n+]3ccccc3)c2C=O)cc1, the inhibition is reported as -7.2% (inactive). In the case of CCOc1cc(S(=O)(=O)Nc2ccccc2CC)ccc1Cl, the inhibition is reported as -1.7% (inactive). In the case of CCOc1ccc(NC(=O)C2CCN(C(=O)NC3CCCCC3)CC2)cc1, the inhibition is reported as -1.9% (inactive). In the case of Cc1cc(NC(=O)NC(=O)c2cccc(OC(F)(F)C(F)F)c2)n[nH]1, the inhibition is reported as -2.9% (inactive). With CS(=O)(=O)N(CC(=O)NCc1ccccc1Cl)Cc1ccccc1 the inhibition was 0% (inactive). In the case of C=CC(=O)Nc1ccc(Br)cc1, the inhibition is reported as -1.2% (inactive). In the case of O=C1CCSc2cccc3cccc(c23)N1, the inhibition is reported as -5.2% (inactive). For Cc1cc(NC(=O)CSc2nc(-c3cccs3)cc(C(F)(F)F)n2)no1, the inhibition was -6.4% (inactive). For CCOc1ccc(C=O)cc1CN1CCCCC1, the inhibition was -10% (inactive). In the case of CC(C)NC1CS(=O)(=O)CC1O (configuration not stated), the inhibition is reported as 4.9% (inactive). With Oc1ccc(Nc2nc(-c3ccc4ccccc4c3)cs2)cc1 the inhibition was -9.7% (inactive). For CN(C)c1cccc(C(=O)Nc2ccc(N3CCOCC3)cc2)c1, the inhibition was -5.4% (inactive). With CCOC(=O)c1ccc(CNC(=O)CCC(=O)O)cc1 the inhibition was -7% (inactive). For NC(=S)N/N=C\c1ccc(-c2cccc(Cl)c2Cl)o1, the inhibition was -8.9% (inactive). In the case of CCC1=NC(c2ccccc2Cl)N(O)C1(C)C (configuration not stated), the inhibition is reported as 7.9% (inactive). With C=CCn1c(COc2ccc(Cl)cc2)nnc1SCC(=O)N/N=C/c1cccc(O)c1 the inhibition was -5.9% (inactive). In the case of CC(=O)c1cccc(NC(=O)c2cc(-c3ccc(F)cc3)on2)c1, the inhibition is reported as 0.8% (inactive). In the case of Cc1csc(NC(=O)CSc2nnc(-c3cccs3)n2C)n1, the inhibition is reported as -10.1% (inactive). With O=[N+]([O-])c1ccc(Sc2nc3ccccc3o2)c([N+](=O)[O-])c1 the inhibition was 4.3% (inactive). For Cc1ccc(-c2noc(CSc3nc(N)cc(N)n3)n2)cc1, the inhibition was -8.4% (inactive). For CCNCC(O)COCC(O)CNCC (configuration not stated), the inhibition was 5.1% (inactive). In the case of O=c1cc(C(Cl)(Cl)Cl)oc2c1ccc1ccccc12, the inhibition is reported as -13.6% (inactive). For CCOC(=O)c1oc2ccccc2c1NC(=O)Cc1cccs1, the inhibition was 0.3% (inactive). In the case of S=c1[nH]nc(COc2ccc3c(c2)OCO3)n1-c1ccccc1, the inhibition is reported as 6.4% (inactive). With CCCc1sc(N/N=C/c2ccccn2)nc1-c1ccc(Br)cc1 the inhibition was -11.5% (inactive). In the case of Clc1ccc(-n2ncc3c(NCc4ccc5c(c4)OCO5)ncnc32)cc1, the inhibition is reported as 2.6% (inactive). In the case of COc1ccc(Cn2nnnc2C(c2cccs2)N2CCSCC2)cc1 (configuration not stated), the inhibition is reported as -3.9% (inactive). For CCCC(=O)Nc1ccc(Cl)c(NC(=O)CC)c1, the inhibition was -2% (inactive). In the case of O=C1c2cccc3c([N+](=O)[O-])ccc(c23)C(=O)N1c1ccc(Cl)cn1, the inhibition is reported as -13.4% (inactive). With O=C(Cn1ncc2c(=O)oc3ccccc3c21)NCCC1=CCCCC1 the inhibition was -3.1% (inactive). In the case of CC(N)Cc1ccccc1Sc1ccc(O)cc1 (configuration not stated), the inhibition is reported as 5.2% (inactive). With CCOC(=O)C1=C(c2ccccc2)OC(N)=C(C#N)C1c1ccco1 (configuration not stated) the inhibition was -12.1% (inactive). With Cc1ccc(S(=O)(=O)Cn2nnnc2C(C(C)C)N2CCN(c3nc4ccccc4s3)CC2)cc1 (configuration not stated) the inhibition was 4.2% (inactive). With CCn1c(SCC(=O)NC(C)c2ccccc2)nc2ccccc21 (configuration not stated) the inhibition was 0.7% (inactive). For N=C1C(c2nc3ccccc3s2)=C(O)CN1Cc1ccco1, the inhibition was 5.2% (inactive). For C/C(=N\Nc1nc2c(s1)CCCC2)c1ccccc1, the inhibition was -2.4% (inactive). In the case of Cc1cc(NC(=O)CSc2nnnn2C)n(-c2ccccc2)n1, the inhibition is reported as -7.2% (inactive). With Cc1ccc(O)c(NC(=O)C2CC(c3c(F)cccc3Cl)=NO2)c1 (configuration not stated) the inhibition was -4.4% (inactive). With Cc1nc2ccccc2n1CCCOc1ccccc1 the inhibition was 1% (inactive). In the case of Cn1cc(-c2nnnn2-c2ccc(Cl)cc2)c(=O)c2ccccc21, the inhibition is reported as -6.6% (inactive). In the case of COc1ccc(CCN(Cc2cc3cccc(C)c3[nH]c2=O)C(=O)N2CCCC2)cc1OC, the inhibition is reported as 4.4% (inactive). In the case of CCOc1cc(C(=O)OCC(=O)c2c(C)[nH]c3ccccc23)ccc1OCC(=O)N1CCOCC1, the inhibition is reported as -10.4% (inactive). In the case of CC1Cc2cc(-c3csc(NC(=O)Cc4cccs4)n3)ccc2N1S(C)(=O)=O (configuration not stated), the inhibition is reported as -0.1% (inactive). With CCOC(=O)Cn1c(SC)nc2sc3c(c2c1=O)CC(C)(C)OC3 the inhibition was -24.8% (inactive). For CCC(C)C1C(C#N)=C(N)Oc2n[nH]c(-c3ccccc3)c21 (configuration not stated), the inhibition was 1.1% (inactive). In the case of COc1ccc(OC)c(NS(=O)(=O)c2ccc(N3CCCC3=O)cc2)c1, the inhibition is reported as -3.6% (inactive). In the case of CCCNS(=O)(=O)c1ccc2c(c1)CCCN2C(C)=O, the inhibition is reported as -1.4% (inactive). With COc1ccccc1C(=O)Nc1ccc2c(c1)nc(CN1CCN(C(C)=O)CC1)n2C the inhibition was 5.7% (inactive). For CN=c1sc2ccccc2n1CC(O)COc1ccccc1 (configuration not stated), the inhibition was -6.5% (inactive). With Nc1ccc2nc(-c3ccc(N)c(Cl)c3)[nH]c2c1 the inhibition was 11.4% (inactive). With Nn1c(SCC(=O)Nc2ccc3c(c2)OCCO3)nnc1C(F)(F)F the inhibition was -22.1% (inactive). With CC1=C(C(=O)OCCOC(C)C)C(c2cccnc2)C2=C(CCCC2=O)N1 (configuration not stated) the inhibition was -18.2% (inactive). For COc1ccc(OC)c(C2CC(=O)c3c([nH]c(C(=O)OC(C)C)c3C)C2)c1 (configuration not stated), the inhibition was 8.4% (inactive). With COc1ccc(C(=O)C(CN2CCCC2)c2ccccc2)cc1 (configuration not stated) the inhibition was 8.8% (inactive). For Cc1cc(N2CCOCC2)c2c(N)c(C)cc(C)c2n1, the inhibition was -8.7% (inactive). For COC(=O)c1cccc(S(=O)(=O)N(Cc2ccco2)Cc2cc3ccc(OC)cc3[nH]c2=O)c1, the inhibition was -3.3% (inactive). In the case of Cc1cc(C)cc(NC(=O)CC2NCCNC2=O)c1 (configuration not stated), the inhibition is reported as -1.4% (inactive). With CCOC(=O)C(C)Oc1cccc2c(=O)n(CC(=O)NCc3ccc4c(c3)OCO4)ccc12 (configuration not stated) the inhibition was 1.3% (inactive). In the case of CCN1C(=O)CSC1=NC12CC3CC(CC(C3)C1)C2, the inhibition is reported as -5.5% (inactive). For O=C(Nc1cnccn1)C1c2ccccc2Oc2ccccc21, the inhibition was 9.9% (inactive). In the case of FC(F)(F)c1cc(-c2ccc3c(c2)OCO3)nc(NCc2ccco2)n1, the inhibition is reported as -1.9% (inactive). With C[n+]1ccc(/C=C/c2ccc(Br)cc2)cc1 the inhibition was 7.4% (inactive). In the case of CC(=O)Nc1nc2cc3c(cc2s1)OCO3, the inhibition is reported as 1.3% (inactive). For CNC(=O)CN(c1ccc(OC)cc1)S(=O)(=O)c1ccc(F)cc1, the inhibition was -9% (inactive). For CCN(CC)c1ccc(-c2nn3c(-c4n[nH]c5c4CCC5)nnc3s2)cc1, the inhibition was 5.7% (inactive). In the case of CCOc1cc(NC(=O)c2ccco2)c(OCC)cc1NC(=O)CCC(=O)NCc1cccnc1, the inhibition is reported as 5.4% (inactive). For Cc1ccccc1-c1nc(CN2CCC(C(=O)NCCCN3CC(C)CC(C)C3)CC2)c(C)o1 (configuration not stated), the inhibition was 0.8% (inactive). In the case of O=S(=O)(c1ccc2c(c1)OCCCO2)N1CCNCC1, the inhibition is reported as 0.7% (inactive). For CC(C)C(=O)Nc1ccc(C(=O)NNC(=O)NC2CCCCC2)cc1, the inhibition was -9.2% (inactive). With Cc1ccc(S(=O)(=O)Nc2cc(C(=O)NCCN3CCCC3)ccc2N2CCCCC2)cc1 the inhibition was -7.7% (inactive). For CSc1nnc2n(-c3ccccc3)c(=O)c3c4c(sc3n12)CCC4, the inhibition was 8.1% (inactive). With c1ccc(-n2ncc3c(NCc4ccccn4)ncnc32)cc1 the inhibition was 24.5% (inactive). With CCCc1nc(SCC(=O)N2CCc3ccccc32)c2c(C)c(C)sc2n1 the inhibition was 2.2% (inactive). For O=C(CF)NC(Nc1cccc2cccnc12)C(Cl)(Cl)Cl (configuration not stated), the inhibition was -8.8% (inactive). For COc1cc(NC(=O)c2ccc(COCC(F)(F)F)o2)cc(OC)c1OC, the inhibition was 5.2% (inactive). In the case of Cc1cc(S(=O)(=O)NCCN2CCOCC2)c(C)s1, the inhibition is reported as 4.3% (inactive). For O=C(O)C1C2C=CC(O2)C1C(=O)Nc1ccc(S(=O)(=O)Nc2ccccc2)cc1 (configuration not stated), the inhibition was -5.8% (inactive). With COc1ccc2[nH]c(=O)c(CN(C(=O)c3ccncc3)C(C)C)cc2c1 the inhibition was -5.6% (inactive). In the case of O=C(NCc1cccs1)c1nc2c(nnn2Cc2ccccc2Cl)c(=O)[nH]1, the inhibition is reported as -3.6% (inactive). For COc1ccccc1/C=N/NC(=O)C(NC(=O)c1ccccc1)=C(C)C, the inhibition was 5.8% (inactive). In the case of CC(C)n1c(C(=O)OCC(=O)NCc2ccc3c(c2)OCO3)cc2sccc21, the inhibition is reported as 14.1% (inactive). With CSc1nc2sc(-c3ccccc3)cc2c(=O)n1N the inhibition was -0.9% (inactive). With CCOC(=O)c1[nH]c(C)c(C(=O)c2ccc(C)cc2)c1C the inhibition was 10.5% (inactive). With O=S(=O)(Cc1ccccc1Cl)N1CCN(Cc2ccc3c(c2)OCO3)CC1 the inhibition was 41.5% (inactive). For Cc1ccc(OCC(O)CN2CCN(CC(O)COc3ccc(C)cc3)CC2)cc1 (configuration not stated), the inhibition was 10.9% (inactive). With CCn1c(=O)c2c(n3cnnc13)-c1ccccc1CC21CCCCC1 the inhibition was 5.6% (inactive). For CCCn1c(SCC(=O)NCc2ccco2)nnc1C(C)C, the inhibition was -5.7% (inactive). In the case of O=C1CC(c2ccccc2)Cc2nc3ncnn3cc21 (configuration not stated), the inhibition is reported as 2.1% (inactive). For Cc1cc(C)n(-c2nc3ccccc3nc2N2CCN(C(=O)c3ccc(Cl)cc3)CC2)n1, the inhibition was -2.4% (inactive). For O=S(=O)(Nc1ccc(-n2cccc2)cc1)c1ccccc1, the inhibition was 0.5% (inactive). With Cc1ccc(-n2nc3ccc(NC(=O)/C=C/c4ccco4)cc3n2)cc1C the inhibition was -5.3% (inactive). With COc1ccc(CCNc2oc(COc3ccccc3F)nc2C#N)cc1 the inhibition was 0% (inactive). In the case of Cn1nc(C(F)(F)F)c(C(=O)Nc2ccc(F)cc2F)c1Sc1ccc(C(F)(F)F)cc1, the inhibition is reported as 13.2% (inactive). For CCOC(=O)C1CCN(Cc2ccccc2C)CC1, the inhibition was 5.4% (inactive). In the case of CCCOc1ccc(/C(O)=C2/C(=O)C(=O)N(CCOC)C2c2cccnc2)cc1 (configuration not stated), the inhibition is reported as -4.5% (inactive).
